Test results reported in patent EP2931723B1, “NEW BICYCLIC COMPOUNDS AND THEIR USE AS ANTIBACTERIAL AGENTS AND -LACTAMASE INHIBITORS” (Fedora Pharmaceuticals Inc., priority 2012, dated 2014).

Legend:
Test in all cases: MIC, antibacterial and synergistic activity
Type in all cases: cell-based
A. baumanii JMI 2659 = A. baumanii JMI 2659 (Ges-14 (Cpase))
E. cloacae JMI 36 = E. cloacae JMI 36 (P99)
E. coli JMI 4080 = test system: E. coli JMI 4080
E.coli JMI 4103 = E.coli JMI 4103 (KPC-2, Tem-1, CMY-Type)
E. coli JMI 10767 [1] = conditions: E. coli JMI 10767 (Wt)
E. coli JMI 2665 = test system: E. coli JMI 2665
Method: (§1) In the Tables 10 - 12, compounds herein disclosed were tested in combination with various antibiotics against metallo β-lactamase producing bacteria. Table 3: Synergy of the inhibitor Ex. 1 (4 µg/mL) in combination with antibiotics

P. aerug JMI 2686 = P. aerug JMI 2686 (KPC-2 (Cpase))
Summary of the method: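 This antibacterial synergy assay measured the minimum inhibitory concentration of antibiotics combined with the disclosed inhibitor compounds. The inhibitor was held at 4 µg/mL throughout. The aim was to see whether the added compound strengthened the antibiotic's action against the tested bacteria.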

K. pneumo JMI 2673 [2] = conditions: K. pneumo JMI 2673 (CTX-M14 (ESBL))
Summary of the method: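 Compounds were evaluated together with various antibiotics to measure synergistic antibacterial activity. For each combination, the minimum inhibitory concentration of the antibiotic was recorded while the inhibitor was present at a constant 4 µg/mL.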

K. pneumo JMI 4088 [3] = conditions: K. pneumo JMI 4088 (KPC-3 (Cpase))
Summary of the method: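 Minimum inhibitory concentrations were measured for antibiotics given together with the test inhibitor, held at 4 µg/mL, against bacteria that produce β-lactamase. The purpose was to see whether the inhibitor restores or boosts antibacterial activity, that is, synergy with the antibiotic.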

K. pneumo JMI 2674 [4] = conditions: K. pneumo JMI 2674 (CTX-M15 (ESBL))
Summary of the method: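 Antibacterial activity was assessed as minimum inhibitory concentrations against a β-lactamase-producing bacterial strain. Each test inhibitor was combined with an antibiotic, with the inhibitor held at a fixed 4 µg/mL, to determine whether it acted synergistically and restored the antibiotic's effect against the resistant organism.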

E. coli JMI 2671 = test system: E. coli JMI 2671
Summary of the method: (§2)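 Metallo β-lactamase-producing isolates were exposed to antibiotics plus a constant inhibitor level (4 µg/mL), and growth inhibition gave the MIC.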

E. coli JMI 10768 [5] = conditions: E. coli JMI 10768 (CTX-M15 (Weak ESBL))
Method: as §1

K. pneumo JMI 2699 = K. pneumo JMI 2699 (VIM-1, CTX-M3)
Summary of the method: as §2

E. coli JMI 10767 [6] = conditions: E. coli JMI 10767 (Wt); remark: listed apart in the source
Method: as §1

K.pneumo JMI 4109 = K.pneumo JMI 4109 (SHV-1, SHV-12)
Summary of the method: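 Antibacterial synergy was assessed by pairing each inhibitor compound, at a constant concentration of 4 µg/mL, with β-lactam antibiotics. The combinations were run against bacterial strains that produce β-lactamases, and the readout was the minimum inhibitory concentration of the antibiotic in the presence of the inhibitor.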

E. coli JMI 10770 = E. coli JMI 10770 (CTX-M15 (Hyper ESBL))
Method: as §1

E. coli ATCC 25922 = E. coli ATCC 25922 (Wt)
P. aerug JMI 149 = P. aerug JMI 149 (Bla+++D+)
K. pneumo JMI 2674 [7] = conditions: K. pneumo JMI 2674 (CTX-M15 (ESBL)); substance alone
K. pneumo JMI 2673 [8] = conditions: K. pneumo JMI 2673 (CTX-M14 (ESBL)); substance alone
E. coli JMI 10768 [9] = conditions: E. coli JMI 10768 (CTX-M15 (Weak ESBL)); Meropenem + inhibitor at 4 µg/mL
K. pneumo JMI 4088 [10] = conditions: K. pneumo JMI 4088 (KPC-3 (Cpase)); substance alone
K. pneumo JMI 2681 = K. pneumo JMI 2681 (Oxa-48 (Cpase))
[11] = Aztreonam + inhibitor at 4 µg/mL
[12] = Ceftazidime + inhibitor at 4 µg/mL
[13] = Meropenem + inhibitor at 4 µg/mL

In the case of `CC(=O)NNC(=O)[C@@H]1CC[C@@H]2CN1C(=O)N2OS(=O)(=O)O` [Ex. 5, (2S,5R)-N'-acetyl-7-oxo-6-(sulfooxy)-1,6-diazabicyclo[3.2.1]octane-2-carbohydrazide], the “MIC Aztreonam + inhibitor” value (A. baumanii JMI 2659; [11]) was greater than 4 µg/mL, the “MIC Ceftazidime + inhibitor” value (A. baumanii JMI 2659; [12]) was greater than 16 µg/mL and the “MIC Meropenem + inhibitor” value (A. baumanii JMI 2659; [13]) was greater than 2 µg/mL. The MIC (A. baumanii JMI 2659; Acinetobacter baumannii, JMI2659, substance alone, read-out: MIC) was greater than 16 µg/mL, the “MIC Aztreonam + inhibitor” value (E. cloacae JMI 36; [11]) was greater than 4 µg/mL and the “MIC Ceftazidime + inhibitor” value (E. cloacae JMI 36; [12]) was 16 µg/mL. For the same compound, the “MIC Meropenem + inhibitor” value (E. cloacae JMI 36; [13]) was 0.125 µg/mL, the MIC (E. cloacae JMI 36; Enterobacter cloacae, JMI36, substance alone, read-out: MIC) was greater than 16 µg/mL and the “MIC Aztreonam + inhibitor” value (E. coli JMI 4080; E. coli JMI 4080 (Tem-10), Aztreonam + inhibitor at 4 µg/mL) was no more than 0.062 µg/mL. The “MIC Ceftazidime + inhibitor” value (E. coli JMI 4080; E. coli JMI 4080 (Tem-10), Ceftazidime + inhibitor at 4 µg/mL) was no more than 0.25 µg/mL, the “MIC Meropenem + inhibitor” value (E. coli JMI 4080; E. coli JMI 4080 (Tem-10), Meropenem + inhibitor at 4 µg/mL) was no more than 0.031 µg/mL and the MIC (E. coli JMI 4080; Escherichia coli, JMI4080, E. coli JMI 4080 (Tem-10), substance alone) was 2 µg/mL. For the same compound, the “MIC Aztreonam + inhibitor” value (E.coli JMI 4103; [11]) was no more than 0.062 µg/mL, the “MIC Ceftazidime + inhibitor” value (E.coli JMI 4103; [12]) was no more than 0.25 µg/mL and the “MIC Meropenem + inhibitor” value (E.coli JMI 4103; [13]) was no more than 0.031 µg/mL. For the same compound, the MIC (E.coli JMI 4103; Escherichia coli, JMI4103, substance alone) was 8 µg/mL, the “MIC Meropenem + inhibitor” value (E. coli JMI 10767 [1]; [13]) was no more than 0.031 µg/mL and the MIC (E. coli JMI 10767 [1]; Escherichia coli, JMI10767, substance alone) was 8 µg/mL. For the same compound, the “MIC Aztreonam + inhibitor” value (E. coli JMI 2665; E. coli JMI 2665 (CMY-2 (Plasmid Cpase)), Aztreonam + inhibitor at 4 µg/mL) was no more than 0.062 µg/mL, the “MIC Ceftazidime + inhibitor” value (E. coli JMI 2665; E. coli JMI 2665 (CMY-2 (Plasmid Cpase)), Ceftazidime + inhibitor at 4 µg/mL) was no more than 0.25 µg/mL and the “MIC Meropenem + inhibitor” value (E. coli JMI 2665; E. coli JMI 2665 (CMY-2 (Plasmid Cpase)), Meropenem + inhibitor at 4 µg/mL) was no more than 0.031 µg/mL. The MIC (E. coli JMI 2665; Escherichia coli, JMI2665) was 2 µg/mL, the “MIC Aztreonam + inhibitor” value (P. aerug JMI 2686; [11]) was greater than 4 µg/mL and the “MIC Ceftazidime + inhibitor” value (P. aerug JMI 2686; [12]) was greater than 16 µg/mL. The “MIC Meropenem + inhibitor” value (P. aerug JMI 2686; [13]) was greater than 2 µg/mL, the “MIC Aztreonam + inhibitor” value (K. pneumo JMI 2673 [2]; [11]) was no more than 0.062 µg/mL and the “MIC Ceftazidime + inhibitor” value (K. pneumo JMI 2673 [2]; [12]) was no more than 0.25 µg/mL. For the same compound, the “MIC Meropenem + inhibitor” value (K. pneumo JMI 2673 [2]; [13]) was no more than 0.031 µg/mL, the “MIC Aztreonam + inhibitor” value (K. pneumo JMI 4088 [3]; [11]) was 0.25 µg/mL and the “MIC Ceftazidime + inhibitor” value (K. pneumo JMI 4088 [3]; [12]) was no more than 0.25 µg/mL. The “MIC Meropenem + inhibitor” value (K. pneumo JMI 4088 [3]; [13]) was 0.125 µg/mL, the “MIC Aztreonam + inhibitor” value (K. pneumo JMI 2674 [4]; [11]) was 0.125 µg/mL and the “MIC Ceftazidime + inhibitor” value (K. pneumo JMI 2674 [4]; [12]) was no more than 0.25 µg/mL. The “MIC Meropenem + inhibitor” value (K. pneumo JMI 2674 [4]; [13]) was 0.062 µg/mL, the “MIC Aztreonam + inhibitor” value (E. coli JMI 2671; E. coli JMI 2671 (VIM-19 (Cpase)), Aztreonam + inhibitor at 4 µg/mL) was no more than 0.062 µg/mL and the “MIC Ceftazidime + inhibitor” value (E. coli JMI 2671; E. coli JMI 2671 (VIM-19 (Cpase)), Ceftazidime + inhibitor at 4 µg/mL) was 2 µg/mL. The “MIC Meropenem + inhibitor” value (E. coli JMI 2671; E. coli JMI 2671 (VIM-19 (Cpase)), Meropenem + inhibitor at 4 µg/mL) was 0.25 µg/mL, the MIC (E. coli JMI 2671; Escherichia coli, JMI2671, E. coli JMI 2671 (VIM-19 (Cpase)), substance alone) was 16 µg/mL and the “MIC Aztreonam + inhibitor” value (E. coli JMI 10768 [5]; [11]) was no more than 0.062 µg/mL. The “MIC Ceftazidime + inhibitor” value (E. coli JMI 10768 [5]; [12]) was no more than 0.25 µg/mL, the MIC (E. coli JMI 10768 [5]; Escherichia coli, JMI10768, substance alone) was 8 µg/mL and the “MIC Aztreonam + inhibitor” value (K. pneumo JMI 2699; [11]) was no more than 0.062 µg/mL. For the same compound, the “MIC Ceftazidime + inhibitor” value (K. pneumo JMI 2699; [12]) was 2 µg/mL, the “MIC Meropenem + inhibitor” value (K. pneumo JMI 2699; [13]) was no more than 0.031 µg/mL and the MIC (K. pneumo JMI 2699; substance alone, read-out: MIC) was greater than 16 µg/mL. For the same compound, the “MIC Aztreonam + inhibitor” value (E. coli JMI 10767 [6]; [11]) was no more than 0.062 µg/mL, the “MIC Ceftazidime + inhibitor” value (E. coli JMI 10767 [6]; [12]) was no more than 0.25 µg/mL and the “MIC Aztreonam + inhibitor” value (K.pneumo JMI 4109; [11]) was no more than 0.062 µg/mL. For the same compound, the “MIC Ceftazidime + inhibitor” value (K.pneumo JMI 4109; [12]) was no more than 0.25 µg/mL, the “MIC Meropenem + inhibitor” value (K.pneumo JMI 4109; [13]) was no more than 0.031 µg/mL and the “MIC Aztreonam + inhibitor” value (E. coli JMI 10770; [11]) was no more than 0.062 µg/mL. The “MIC Ceftazidime + inhibitor” value (E. coli JMI 10770; [12]) was no more than 0.25 µg/mL, the “MIC Meropenem + inhibitor” value (E. coli JMI 10770; [13]) was no more than 0.031 µg/mL and the “MIC Aztreonam + inhibitor” value (E. coli ATCC 25922; [11]) was no more than 0.062 µg/mL. For the same compound, the “MIC Ceftazidime + inhibitor” value (E. coli ATCC 25922; [12]) was no more than 0.25 µg/mL, the “MIC Meropenem + inhibitor” value (E. coli ATCC 25922; [13]) was no more than 0.031 µg/mL and the MIC (E. coli ATCC 25922; Escherichia coli, ATCC25922, substance alone) was 2 µg/mL. For the same compound, the “MIC Aztreonam + inhibitor” value (P. aerug JMI 149; [11]) was greater than 4 µg/mL, the “MIC Ceftazidime + inhibitor” value (P. aerug JMI 149; [12]) was greater than 16 µg/mL and the “MIC Meropenem + inhibitor” value (P. aerug JMI 149; [13]) was 0.5 µg/mL. The MIC (P. aerug JMI 149; substance alone, read-out: MIC) was greater than 16 µg/mL, the MIC (K. pneumo JMI 2674 [7]) was greater than 16 µg/mL and the MIC (K. pneumo JMI 2673 [8]) was greater than 16 µg/mL. The “MIC Meropenem + inhibitor” value (E. coli JMI 10768 [9]) was no more than 0.031 µg/mL, the MIC (K. pneumo JMI 4088 [10]) was greater than 16 µg/mL and the “MIC Aztreonam + inhibitor” value (K. pneumo JMI 2681; [11]) was 0.5 µg/mL. The “MIC Ceftazidime + inhibitor” value (K. pneumo JMI 2681; [12]) was no more than 0.25 µg/mL, the “MIC Meropenem + inhibitor” value (K. pneumo JMI 2681; [13]) was 2 µg/mL and the MIC (K. pneumo JMI 2681; substance alone, read-out: MIC) was 16 µg/mL.
